Measurements taken from patent US8372874B2, “Compounds which selectively modulate the CB2 receptor” (Boehringer Ingelheim International GmbH, priority 2008, dated 2013).
Where two headings read alike, the source gives them in different places.

Tests used:
[1] = biological target: T1, human CB2R (Homo sapiens, UniProt P34972); assay: CB2R mediated modulation of cAMP synthesis; type: cell-based
T1 construct: host or cells: CHO cells
Experimental: B. CB2R Mediated Modulation of cAMP Synthesis:
Compounds of the invention are evaluated for their CB2 agonist or inverse agonistic activity in accordance with the following experimental method.
(§1) CHO cells expressing human CB2R (Euroscreen) are plated at a density of 5000 cells per well in 384 well plates and incubated overnight at 37° C. After removing the media, the cells are treated with test compounds diluted in stimulation buffer containing 1 mM IBMX, 0.25% BSA and 10 uM Forskolin. The assay is incubated for 30 minutes at 37° C. Cells are lysed and the cAMP concentration is measured using DiscoverX-XS cAMP kit, following the manufacturer's protocol. In this setting, agonists will decrease forskolin induced production of cAMP while inverse agonists will further increase forskolin induced production of cAMP. EC50 of agonists are calculated as follows. The maximal amount of cAMP produced by forskolin compared to the level of cAMP inhibited by 1 uM CP55940 is defined as 100%. […] Data is analyzed using a four-parameter logistic model. (Model 205 of XLfit 4.0).

[2] = biological target: T2, human CB1R (Homo sapiens, UniProt P21554); assay: CB1R mediated modulation of cAMP synthesis; type: cell-based
T2 construct: host or cells: CHO cells
T2 sequence (P21554 whole entry): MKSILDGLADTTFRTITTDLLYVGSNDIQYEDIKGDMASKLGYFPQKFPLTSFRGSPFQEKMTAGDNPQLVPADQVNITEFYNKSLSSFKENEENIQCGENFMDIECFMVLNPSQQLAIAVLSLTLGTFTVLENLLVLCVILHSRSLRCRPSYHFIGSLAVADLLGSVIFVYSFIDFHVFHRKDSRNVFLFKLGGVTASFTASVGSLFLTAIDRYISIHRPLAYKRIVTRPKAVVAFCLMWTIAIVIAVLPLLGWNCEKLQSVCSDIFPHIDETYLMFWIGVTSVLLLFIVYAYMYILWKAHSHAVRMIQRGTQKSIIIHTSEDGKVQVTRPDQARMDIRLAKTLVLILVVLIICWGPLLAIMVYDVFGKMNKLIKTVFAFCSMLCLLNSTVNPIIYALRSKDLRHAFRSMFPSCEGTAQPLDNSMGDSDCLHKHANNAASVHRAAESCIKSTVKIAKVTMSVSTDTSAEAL
Experimental: C. CB1R Mediated Modulation of cAMP Synthesis:
Compounds of the invention are evaluated for their CB1 agonist or inverse agonistic activity in accordance with the following experimental method.
as §1, with “CB1R” for “CB2R”

[3] = CHO cells expressing human CB2R, inhibition of forskolin-stimulated cAMP synthesis, read-out: CB2 EC50
[4] = CHO cells expressing human CB1R, inhibition of forskolin-stimulated cAMP synthesis, read-out: CB1 EC50

T1 sequence (P34972 whole entry): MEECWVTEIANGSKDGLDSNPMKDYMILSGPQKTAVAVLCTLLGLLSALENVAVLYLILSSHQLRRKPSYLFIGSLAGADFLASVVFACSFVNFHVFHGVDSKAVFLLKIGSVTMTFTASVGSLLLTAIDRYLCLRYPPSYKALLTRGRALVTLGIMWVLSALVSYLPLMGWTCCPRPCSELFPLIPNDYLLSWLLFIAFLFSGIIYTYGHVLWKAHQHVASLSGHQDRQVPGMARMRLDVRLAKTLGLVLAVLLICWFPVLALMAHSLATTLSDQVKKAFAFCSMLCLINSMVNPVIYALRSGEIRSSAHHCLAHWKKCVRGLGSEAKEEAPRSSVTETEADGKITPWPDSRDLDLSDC

SMILES | EC50 [1] [nM] | EC50 [2] [nM] | EC50 [1, 3] [nM] | EC50 [2, 4] [nM]
CC(=O)OCC(C)(C)c1cc(NC(=O)C(C)(C)S(=O)(=O)C2CCOCC2)on1 | 4.2 | > 50000 | – | –
CC(C)(C)C(=O)OCC(C)(C)c1cc(NC(=O)C(C)(C)S(=O)(=O)C2CCOCC2)on1 | 50 | > 50000 | – | –
CC(O)C(C)(C)c1cc(NC(=O)C(C)(C)S(=O)(=O)C2CCOCC2)on1 (centres unmarked) | 14 | > 50000 | – | –
CC(C)(COC(=O)c1ccccc1)c1cc(NC(=O)C(C)(C)S(=O)(=O)C2CCOCC2)on1 | 11 | > 50000 | – | –
C[C@H](O)C(C)(C)c1cc(NC(=O)C(C)(C)S(=O)(=O)C2CCOCC2)on1 | 14 | > 50000 | – | –
C[C@@H](O)C(C)(C)c1cc(NC(=O)C(C)(C)S(=O)(=O)C2CCOCC2)on1 | 20 | > 50000 | – | –
CC(C)(O)C(C)(C)c1cc(NC(=O)C(C)(C)S(=O)(=O)C2CCOCC2)on1 | – | – | 116 | > 50000
CC(O)C(C)(C)c1cc(NC(=O)C(C)(C)S(=O)(=O)CCCC(F)(F)F)on1 (centres unmarked) | 31 | > 20000 | – | –
CC(C)(C(=O)Nc1cc(C2(COC3CCCCO3)CCCCC2)no1)S(=O)(=O)C1CCOCC1 (centres unmarked) | 22 | > 50000 | – | –
CCC(O)C(C)(C)c1cc(NC(=O)C(C)(C)S(=O)(=O)C2CCOCC2)on1 (centres unmarked) | 29 | > 50000 | – | –
COCCOCC(C)(C)c1cc(NC(=O)C(C)(C)S(=O)(=O)C2CCOCC2)on1 | 2.1 | > 50000 | – | –
CC(C)C(O)C(C)(C)c1cc(NC(=O)C(C)(C)S(=O)(=O)C2CCOCC2)on1 (centres unmarked) | – | – | 150 | > 50000
CC(C)(C(=O)Nc1cc(C2(COC3CCCCO3)CCCC2)no1)S(=O)(=O)c1ccc(F)cc1 (centres unmarked) | 5.3 | > 50000 | – | –
C[C@H](OC1CCCOC1)C(C)(C)c1cc(NC(=O)C(C)(C)S(=O)(=O)C2CCOCC2)on1 (some centres unmarked) | 2.8 | > 50000 | – | –
CC[C@H](O)C(C)(C)c1cc(NC(=O)C(C)(C)S(=O)(=O)C2CCOCC2)on1 | 47 | > 50000 | – | –
CC[C@@H](O)C(C)(C)c1cc(NC(=O)C(C)(C)S(=O)(=O)C2CCOCC2)on1 | 70 | > 50000 | – | –
CCn1nc(NC(=O)C(C)(C)S(=O)(=O)C2CCOCC2)nc1-c1ccc(OC)cc1 | 77 | > 500000 | – | –
CCn1nc(NC(=O)C(C)(C)S(=O)(=O)C2CCOCC2)nc1-c1ccc(O)cc1 | 10 | > 20000 | – | –
COCCOCC1(c2cc(NC(=O)C(C)(C)S(=O)(=O)C3CCOCC3)on2)CCCCC1 | 59 | > 50000 | – | –
CC(C)(C(=O)Nc1cc(C2CCOCC2)no1)S(=O)(=O)C1CCOCC1 | – | – | 348 | > 50000
CC(C)(C(=O)Nc1cc(C2CCOCC2)no1)S(=O)(=O)CCCC(F)(F)F | – | – | 368 | > 50000
CC(C)(C(=O)Nc1cc(C2CCCO2)no1)S(=O)(=O)C1CCOCC1 (centres unmarked) | – | – | 101 | > 50000
CC(C)(C(=O)Nc1cc(C2CCOC2)no1)S(=O)(=O)CCCC(F)(F)F (centres unmarked) | – | – | 172 | > 50000

SMILES | EC50 [1] [nM] | EC50 [2] [nM] | EC50 [1, 3] [nM] | EC50 [2, 4] [nM]
CC(C)(C(=O)Nc1cc([C@@H]2CCCO2)no1)S(=O)(=O)C1CCOCC1 | – | – | 138 | > 50000
CC(C)CCS(=O)(=O)C(C)(C)C(=O)Nc1cc(C2CCOCC2)no1 | 97 | > 20000 | – | –
CC1(c2cc(NC(=O)C(C)(C)S(=O)(=O)C3CCOCC3)on2)CCCO1 (centres unmarked) | 13 | > 50000 | – | –
COc1ccc(COCC(C)(C)c2cc(NC(=O)C(C)(C)S(=O)(=O)CC3CCOCC3)on2)cc1 | – | – | 167 | > 20000
C[C@H](O)C(C)(C)c1cc(NC(=O)C(C)(C)S(=O)(=O)C2CCN(S(C)(=O)=O)CC2)on1 | – | – | 107 | > 50000
CO[C@@H](C)C(C)(C)c1cc(NC(=O)C(C)(C)S(=O)(=O)C2CCOCC2)no1 | 10.8 | > 50000 | – | –
COCCOCC(C)(C)c1cc(NC(=O)C(C)(C)S(=O)(=O)C2CCOCC2)no1 | 15 | > 50000 | – | –
COCCOC(C)(C)c1cc(NC(=O)C(C)(C)S(=O)(=O)C2CCOCC2)on1 | 96 | > 50000 | – | –
C[C@H](O)C(C)(C)c1cc(NC(=O)C(C)(C)S(=O)(=O)C2CCOCC2)no1 | 25 | > 50000 | – | –
C[C@H](O)C(C)(C)c1cc(NC(=O)C(C)(C)S(=O)(=O)c2ccc(F)cc2)on1 | 42 | > 50000 | – | –
CC(C)(COCCO)c1cc(NC(=O)C(C)(C)S(=O)(=O)C2CCOCC2)no1 | 2.4 | > 50000 | – | –
COCCOCC(C)(C)c1cc(NC(=O)C(C)(C)S(=O)(=O)CC2CCOCC2)no1 | 15 | > 50000 | – | –
CO[C@@H](C)C(C)(C)c1cc(NC(=O)C(C)(C)S(=O)(=O)CC2CCOCC2)no1 | 30 | > 50000 | – | –
CC(C)(OCCO)c1cc(NC(=O)C(C)(C)S(=O)(=O)C2CCOCC2)on1 | 28 | > 50000 | – | –
COCCOCC(C)(C)c1cc(NC(=O)C(C)(C)S(=O)(=O)C2CCN(S(C)(=O)=O)CC2)on1 | 11 | > 50000 | – | –
C[C@H](O)C(C)(C)c1cc(NC(=O)C(C)(C)S(=O)(=O)CC2CCOCC2)no1 | – | – | 121 | > 50000
CC(C)(COCCO)c1cc(NC(=O)C(C)(C)S(=O)(=O)C2CCN(S(C)(=O)=O)CC2)on1 | 10 | > 50000 | – | –
C[C@H](O)C(C)(C)c1cc(NC(=O)C(C)(C)S(=O)(=O)CC[C@@H]2CCOC2)no1 | 15 | 21000 | – | –
CC[C@H](C)S(=O)(=O)C(C)(C)C(=O)Nc1cc(C(C)(C)[C@H](C)O)no1 | – | – | 250 | > 50000
COCCOCC(C)(C)c1cc(NC(=O)C(C)(C)S(=O)(=O)C[C@H]2CCOC2)on1 | 98 | > 50000 | – | –
COCCOCC(C)(C)c1cc(NC(=O)C(C)(C)S(=O)(=O)CCC(F)(F)F)on1 | 27 | > 50000 | – | –
CCOCCOCC(C)(C)c1cc(NC(=O)C(C)(C)S(=O)(=O)C2CCOCC2)on1 | 1.5 | > 50000 | – | –
CC(C)(COCCO)c1cc(NC(=O)C(C)(C)S(=O)(=O)CC2CCOCC2)on1 | 13 | > 50000 | – | –
